Experimental data published in the NIST ThermoML archive (doi:10.1016/j.jct.2014.09.020).

Assay: xn = mol fraction of the nth substance listed
Conditions: Liquid; for speed of sound: Frequency=4 MHz, Single path-length method; for mass density: Vibrating tube method

c1ccc2c(c1)CCCC2 [1,2,3,4-tetrahydronaphthalene] + CCCCCCCCCC
Conditions | mass density, 100 kPa [kg/m3] | speed of sound, 100 kPa [m/s] | speed of sound, 5000 kPa [m/s] | speed of sound, 10000 kPa [m/s] | speed of sound, 15000 kPa [m/s] | speed of sound, 20000 kPa [m/s] | speed of sound, 25000 kPa [m/s]
313.15 K, x2 = 0 | 952.93 | 1413 | 1434 | 1455 | 1475 | 1495 | 1513
313.15 K, x2 = 0.2501 | 877.12 | 1331 | 1356 | 1380 | 1402 | 1424 | 1445
313.15 K, x2 = 0.5005 | 813.93 | 1265 | 1293 | 1319 | 1346 | 1370 | 1394
313.15 K, x2 = 0.7502 | 760.5 | 1214 | 1244 | 1273 | 1302 | 1329 | 1354
323.15 K, x2 = 0 | 944.99 | 1374 | 1397 | 1419 | 1439 | 1459 | 1480
323.15 K, x2 = 0.2501 | 869.27 | 1291 | 1317 | 1342 | 1365 | 1389 | 1411
323.15 K, x2 = 0.5005 | 806.15 | 1228 | 1255 | 1283 | 1310 | 1336 | 1361
323.15 K, x2 = 0.7502 | 752.77 | 1175 | 1207 | 1238 | 1268 | 1296 | 1321
333.15 K, x2 = 0 | 937.04 | 1335 | 1359 | 1383 | 1402 | 1425 | 1445
333.15 K, x2 = 0.2501 | 861.39 | 1254 | 1281 | 1306 | 1331 | 1356 | 1379
333.15 K, x2 = 0.5005 | 798.33 | 1189 | 1220 | 1249 | 1276 | 1302 | 1327
333.15 K, x2 = 0.7502 | 744.98 | 1137 | 1174 | 1204 | 1234 | 1263 | 1292
